What was measured:
[1] = system: histone deacetylase (HDAC); conditions: cited from earlier work
[2] = Solubility / achievable concentration of sodium 4-phenylbutyrate in water; assay type: physicochemical; conditions: supersaturated solution in aqueous medium
Procedure: This art-reported solubility is believed to pertain to the maximum solubility of the monomeric form of sodium 4-phenylbutyrate in water. As described in more detail below, a process has been identified of preparing a highly concentrated solution of sodium 4-phenylbutyrate, having a concentration 500 mg/mL in water by dissolving 5 g of sodium 4-phenylbutyrate in about 3.5 mL water to yield a solution volume of about 10 mL. The temperature can be room temperature (25° C.) or an elevated temperature, preferably in the range of up to about 80° C. The solution can be made at a higher temperature and then cooled to room temperature without precipitating resulting.

[3] = high dosage of about 20 g a day; cited from earlier work
[4] = Storage of the concentrated aqueous solution at low temperature (freezing / precipitation); assay type: physicochemical
Procedure: Therefore, due to likely micelle formation of sodium 4-phenylbutyrate (which we term the self-associated polymeric form), the high concentration of about 500 mg/mL can be achieved in solution. […] This novel invention thus provides a dosage form better able to help the patients presently administered with a high volume dosage of sodium 4-phenylbutyrate. This invention is not intended to be limited by this discussion of micellar phases, or the presence or absence of other high concentration phases (such as sponge or L3, worm-like micelles, sheets and other laminar phases) that may be formed depending on the particular processing conditions and/or materials used. In the follow description the term “solution” is used without regard to whether a micellar phase is present. […] The mixture was cooled to 25° C. and 0.5 g of sodium benzoate was added and mixed well. […] Further cooling of this solution to about −4° C. caused precipitation.

O=C([O-])CCCc1ccccc1.[Na+] [sodium 4-phenylbutyrate]
inhibition of histone deacetylase (HDAC) [1]: efficient inhibitor | maximum drug concentration achieved in the formulation [2]: about 700 mg/mL | tolerability [3]: well tolerated | freezing of the solution ([4]; 600 mg/mL solution at 0° C.): does not freeze | temperature at which precipitation is observed on further cooling ([4]; about 500 mg/mL solution): −40 °C | freezing or precipitation upon storage ([4]; about 500 mg/mL solution, 0° C. for two days): did not freeze or precipitate out

From patent US20080171792A1, “Use of highly concentrated formulations of 4-phenylbutyrate for treatment of certain disorders” (priority 2006, published 2008)
